The text below walks through data of patent US10815222B2, “Compounds for use in the treatment of kinetoplastid infection” (C.N.C.C.S. S.c.a.r.l. COLLEZIONE NAZIONALE DEI COMPOSTI …, priority 2016, dated 2020).

What all share (type): cell-based
In assay [1] the test system is HUVEC cells. Nature of the assay: HUVEC cytotoxicity assay (CellTiter Glo, 72 h). The note with it: Homo sapiens, read-out: Cell Proliferation HUVEC IC50. On the procedure:
(§1) HeLa cells (ATCC® CCL2™) in DMEM (Dulbecco Modified Eagle's Medium) without phenol red, Thermo, 11880, USA+10% FBS+1× PenStrep+1× Gln or HUVEC cells (ATCC® CRL1730™) in EBM-2 (Endothelial Growth Basal Medium, Lonza, CC3156)+EGM-2 SingleQuotsTMSupplements and Growth Factors (Lonza, CC4176)+1× Penicyllin-Streptomycin (PenStrep, ThermoFisher)+1× Glutamine, are plated in a 384 well plate (Thermo, 4334-11, USA) to a density of 2000 cells per well and let recover for four hours at 37° C., 5% CO2 in a humidified atmosphere. After the recovery, compounds are transferred to assay plates as per compound preparation method. Assay plates are then incubated at 37° C., 5% CO2 in a humidified atmosphere for 72 hours. Cell viability is measured by the CellTiter Glo (Promega, G8080, USA) as per manufacturer instruction.
For orientation: ATP-based viability assays read luminescence as a measure of living cells.

In assay [2] the test system is HeLa cells. As to the kind of experiment: HeLa cytotoxicity assay (CellTiter Glo, 72 h). The settings on record: Homo sapiens, read-out: Cell Proliferation Hela IC50. On the procedure:
as §1

For assay [3], the system named is Bloodstream form of Trypanosoma brucei, strain Lister 427. As to the kind of experiment: Trypanosoma brucei growth inhibition assay (CellTiter-Glo, 24 h). The note with it: Trypanosoma brucei. A digest of the protocol:
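Growth read-out was CellTiter-Glo luminescence after 24 h at 37 °C incubation of 1500 bloodstream-form Lister 427 trypanosomes per well with compound, in supplemented IMDM containing 10% FBS and at most 0.25% DMSO.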

Where [4] appears, read: T. Brucei Growth Inibition Assay, class symbols, read-out: T. Brucei GI EC50.
The mark [5] stands for this setting: Table 3, read-out: T. brucei GI EC50.

Where two headings read alike, the source gives them in different places.

By EC50 is commonly meant the concentration needed to bring the measured effect to its halfway point. `COc1nc2ccccc2cc1-c1cnc(C2CN(CC3CCOC3)CCN2C(=O)Cn2c(C)nc3ccccc32)[nH]1` (stereo not shown) [1-(2-(5-(2-methoxyquinolin-3-yl)-1H-imidazol-2-yl)-4-((tetrahydrofuran-3-yl)methyl)piperazin-1-yl)-2-(2-methyl-1H-benzo[d]imidazol-1-yl)ethan-1-one]: the values for the IC50 in assay [1] and in assay [2] were at least 25000 nM and 20600 nM, respectively. In addition, the concentration for a half-maximal effect (EC50) in assay [3] (setting [4]) was 100 to 500 nM; in assay [3] (setting [5]), 163 nM.
For the compound `CCC(=O)CCCN1CCN(C(=O)Cc2c(C)[nH]c3ccc(OC)cc23)C(c2ncc(-c3ccc4ccccc4c3)[nH]2)C1` (stereo not shown) [6-(4-(2-(5-methoxy-2-methyl-1H-indol-3-yl)acetyl)-3-(5-(naphthalen-2-yl)-1H-imidazol-2-yl)piperazin-1-yl)hexan-3-one], the IC50 was at least 25000 nM in assay [1] and 12300 nM in assay [2]. In addition, the EC50 is under 100 nM in assay [3] (setting [4]) and 9.92 nM in assay [3] (setting [5]).
For `COc1nc2ccccc2cc1-c1cnc(C2CN(Cc3cnn(C)c3)CCN2C(=O)Cc2c(C)[nH]c3ccc(F)cc23)[nH]1` (stereo not shown) [2-(5-fluoro-2-methyl-1H-indol-3-yl)-1-(2-(5-(2-methoxyquinolin-3-yl)-1H-imidazol-2-yl)-4-((1-methyl-1H-pyrazol-4-yl)methyl)piperazin-1-yl)ethan-1-one], the IC50 in assay [1] is 6720 nM; in assay [2], 17400 nM. For the same compound, the EC50 in assay [3] (setting [4]) was 100 to 500 nM; in assay [3] (setting [5]), 172 nM.
Taken in the same sequence, the figures for `COc1ccc2[nH]c(C)c(CC(=O)N3CCN(CC4CC4)CC3c3ncc(-c4ccc5ccccc5c4)[nH]3)c2c1` (stereo not shown) [1-(4-(cyclopropylmethyl)-2-(5-(naphthalen-2-yl)-1H-imidazol-2-yl)piperazin-1-yl)-2-(5-methoxy-2-methyl-1H-indol-3-yl)ethan-1-one] were 8060 nM, at least 25000 nM, under 100 nM and 17.6 nM.
With `COc1nc2ccccc2cc1-c1cnc(C2CN(CC3CCOC3)CCN2C(=O)Cc2c(C)[nH]c3ccc(F)cc23)[nH]1` (stereo not shown) [2-(5-fluoro-2-methyl-1H-indol-3-yl)-1-(2-(5-(2-methoxyquinolin-3-yl)-1H-imidazol-2-yl)-4-((tetrahydrofuran-3-yl)methyl)piperazin-1-yl)ethan-1-one], the IC50 in assay [1] came out at 9630 nM; in assay [2] it was 18700 nM. The EC50 is under 100 nM in assay [3] (setting [4]) and 35.1 nM in assay [3] (setting [5]).
With `CCC(=O)CCCN1CCN(C(=O)Cc2c(C)[nH]c3ccc(OC)cc23)C(c2nnc(-c3ccc4ccccc4c3)o2)C1` (stereo not shown) [6-(4-(2-(5-methoxy-2-methyl-1H-indol-3-yl)acetyl)-3-(5-(naphthalen-2-yl)-1,3,4-oxadiazol-2-yl)piperazin-1-yl)hexan-3-one], the IC50 in assay [1] and in assay [2] was at least 25000 nM in each case. Also, the EC50 is 100 to 500 nM in assay [3] (setting [4]) and 350 nM in assay [3] (setting [5]).
`COc1ccc2[nH]c(C)c(CC(=O)N3CCN(CC4CCOC4)CC3c3ncc(-c4cc5ccccc5nc4OC)[nH]3)c2c1` (stereo not shown) [2-(5-methoxy-2-methyl-1H-indol-3-yl)-1-(2-(5-(2-methoxyquinolin-3-yl)-1H-imidazol-2-yl)-4-((tetrahydrofuran-3-yl)methyl)piperazin-1-yl)ethan-1-one]: the IC50 in assay [1] is 23200 nM; in assay [2] it was at least 25000 nM. Besides, the EC50 was under 100 nM in assay [3] (setting [4]) and 22.9 nM in assay [3] (setting [5]).
Taken in the same sequence, the figures for `COc1nc2ccccc2cc1-c1cnc(C2CN(C3CCOCC3)CCN2C(=O)Cc2c(C)[nH]c3ccc(F)cc23)[nH]1` (stereo not shown) [2-(5-fluoro-2-methyl-1H-indol-3-yl)-1-(2-(5-(2-methoxyquinolin-3-yl)-1H-imidazol-2-yl)-4-(tetrahydro-2H-pyran-4-yl)piperazin-1-yl)ethan-1-one] were 10600 nM, at least 25000 nM, 100 to 500 nM and 117 nM.
Taken in the same sequence, the figures for `COc1nc2ccccc2cc1-c1cnc(C2CN(C)CCN2C(=O)Cc2c(C)[nH]c3ccc(F)cc23)[nH]1` (stereo not shown) [2-(5-fluoro-2-methyl-1H-indol-3-yl)-1-(2-(5-(2-methoxyquinolin-3-yl)-1H-imidazol-2-yl)-4-methylpiperazin-1-yl)ethan-1-one] were 5680 nM, 18100 nM, 100 to 500 nM and 122 nM.
On to `CCC(O)CCCN1CCN(C(=O)Cc2c(C)[nH]c3ccc(OC)cc23)C(c2ncc(-c3ccc4ccccc4c3)[nH]2)C1` (stereo not shown) [1-(4-(4-hydroxyhexyl)-2-(5-(naphthalen-2-yl)-1H-imidazol-2-yl)piperazin-1-yl)-2-(5-methoxy-2-methyl-1H-indol-3-yl)ethan-1-one], for which the IC50 in assay [1] was found to be 9270 nM; in assay [2], 13100 nM. Moreover, the EC50 in assay [3] (setting [4]) was under 100 nM; in assay [3] (setting [5]), 13 nM.
On to `CCC(=O)CCCN1CCN(C(=O)Cc2c[nH]c3ncccc23)C(c2ncc(-c3ccc4ccccc4c3)[nH]2)C1` (stereo not shown), for which the IC50 in assay [1] and in assay [2] was at least 25000 nM in each case. The figures for the EC50 in assay [3] (setting [4]) and in assay [3] (setting [5]) were 510 to 1000 nM and 545 nM, respectively.
In the case of `CCCCCCN1CCN(C(=O)Cc2c(C)[nH]c3ccc(OC)cc23)C(c2ncc(-c3ccc4ccccc4c3)[nH]2)C1` (stereo not shown) [1-(4-hexyl-2-(5-(naphthalen-2-yl)-1H-imidazol-2-yl)piperazin-1-yl)-2-(5-methoxy-2-methyl-1H-indol-3-yl)ethan-1-one], the IC50 in assay [1] and in assay [2] was at least 25000 nM throughout. For the same compound, the EC50 was under 100 nM in assay [3] (setting [4]) and 78.7 nM in assay [3] (setting [5]).
As to `COc1nc2ccccc2cc1-c1cnc(C2CN(Cc3nccs3)CCN2C(=O)Cc2c(C)[nH]c3ccc(F)cc23)[nH]1` (stereo not shown) [2-(5-fluoro-2-methyl-1H-indol-3-yl)-1-(2-(5-(2-methoxyquinolin-3-yl)-1H-imidazol-2-yl)-4-(thiazol-2-ylmethyl)piperazin-1-yl)ethan-1-one], the results for the IC50 in assay [1] and in assay [2] were 8200 nM and at least 25000 nM, respectively. In addition, the EC50 in assay [3] (setting [4]) is under 100 nM; in assay [3] (setting [5]), 60.6 nM.
Taken in the same sequence, the figures for `COc1ccc2[nH]c(C)c(CC(=O)N3CCN(C)CC3c3ncc(-c4cc5ccccc5nc4OC)[nH]3)c2c1` (stereo not shown) [2-(5-methoxy-2-methyl-1H-indol-3-yl)-1-(2-(5-(2-methoxyquinolin-3-yl)-1H-imidazol-2-yl)-4-methylpiperazin-1-yl)ethan-1-one] were at least 25000 nM, at least 25000 nM, 100 to 500 nM and 139 nM.
`COc1ccc2[nH]c(C)c(CC(=O)N3CCN(C)CC3c3ncc(-c4ccc5ccccc5c4)[nH]3)c2c1` (stereo not shown) [2-(5-methoxy-2-methyl-1H-indol-3-yl)-1-(4-methyl-2-(5-(naphthalen-2-yl)-1H-imidazol-2-yl)piperazin-1-yl)ethan-1-one]: the IC50 in assay [1] was 21800 nM; in assay [2], at least 25000 nM. Moreover, the EC50 was under 100 nM in assay [3] (setting [4]) and 39.9 nM in assay [3] (setting [5]).
With `COc1ccc2[nH]c(C)c(CC(=O)N3CCN(CC4CCOC4)CC3c3ncc(-c4ccc5ccccc5c4)[nH]3)c2c1` (stereo not shown) [2-(5-methoxy-2-methyl-1H-indol-3-yl)-1-(2-(5-(naphthalen-2-yl)-1H-imidazol-2-yl)-4-((tetrahydrofuran-3-yl)methyl)piperazin-1-yl)ethan-1-one], the IC50 in assay [1] was 18700 nM; in assay [2], at least 25000 nM. Further, the concentration for a half-maximal effect (EC50) is under 100 nM in assay [3] (setting [4]) and 4.72 nM in assay [3] (setting [5]).
